Experimental findings from US20250002435A1, “ARYLATED FENCHONE DERIVATIVES, COMPOSITIONS COMPRISING THEM, PROCESSES FOR THEIR PREPARATION AND USES THEREOF” (priority 2021, published 2025) are described below.

By EC50 is commonly meant the concentration giving half of the maximal effect. What is called IC50 is the point on the concentration scale where inhibition reaches its midpoint. For orientation: Ki means the dissociation constant of the complex between target and ligand, obtained from inhibition or displacement.

The target of assay [1] is T1, hCB2R (Homo sapiens (Human), UniProt P34972). The assay is described as follows: [35S]GTPγS binding assay, hCB2R CHO cell membranes. The format is biochemical. The conditions noted are these: for functional activity at hCB2R (agonist / inverse agonist): [35S]GTPγS binding; for EC50: [35S]GTPγS binding to hCB2R, two independent experiments in triplicate; for E(max) %: percentage of HU-308 response at 1 μM. The procedure:
Functional Characterization.
The method used for measuring agonist-stimulated binding of [^35S]GTPγS was based on a described protocol. The assays were carried out with GTPγS assay buffer (50 mM Tris HCl (pH 7.4), 0.2 mM EGTA, 9 mM MgCl2, 150 mM NaCl, 1 mg/ml BSA). Briefly, membranes (5 μg protein) were incubated in assay buffer containing 100 μM GDP, 0.05 nM [^35S]GTPγS, test compounds at various concentrations in siliconized glass tubes. Bound ligand was separated from free ligand by vacuum filtration. Nonspecific binding was determined using 10 μM GTPS. Basal binding was assayed in the absence of the ligand and in the presence of GDP.
In general terms: GTPγS is a poorly hydrolysed GTP analogue; its binding reports G protein activation.

The target in assay [2] is T1, hCB2R. The assay is described as follows: [3H]CP-55,940 competition displacement binding, membranes of CHO-K1 cells expressing human CB2R. How it is done:
(§1) Affinity for Cannabinoid Receptors. The compounds were further characterized using a radioligand binding assay to determine their affinities for CB1R and CB2R based on each test compound's ability to displace the radiolabeled CB1R/CB2R agonist CP-55,940 from membranes prepared from a mouse brain (a source of CB1R) and membranes of cells expressing the human CB2R. […] Therefore, the compounds were assayed using membranes from CHO-K1 cells expressing the human CB2R (hCB2R).
(§2) Membranes from cells expressing human CB2R were purchased from Charles River, (Cat #A308; Ohio, US). Solutions of test compounds ranging from 0.1 nM to 10 mM were prepared in DMSO. The desired amount of membrane preparation was diluted with ice-cold assay buffer (50 mM Tris-HCl, 2.5 mM EDTA, 5 mM MgCl2, 0.1% BSA, pH 7.4) and was vortexed. […] The assays were incubated for 90 minutes at 30° C. and then immediately filtered on WHATMAN GF/B FilterPaper (Fired) using a Brandel M-24R Harvester followed by six washes with ice cold wash buffer (50 mM Tris-HCl, 2.5 mM EDTA, 5 mM MgCl2, 0.1% BSA, pH 7.4). Radioactivity was detected by adding the FilterPaper directly to the ULTIMA GOLD scintillation cocktail (PerkinElmer), incubation at 20° C. for 60 min and then counted using a Tri-Carb 4910TR liquid scintillation counter.

Assay [3] addresses mCB1R (Mus musculus (Mouse), UniProt P47746). The assay is described as follows: [3H]CP-55,940 competition displacement binding, crude membranes from mouse brain. The procedure: as §1, §2
Setting [4] is: >10 μM = Displacement of radioactive ligand detected at high concentrations competing ligand, read-out: Ki mCB1R.
Where [5] appears, read: displacement of [3H]CP-55,940, NB = No binding detected at concentrations up to 10 μM, read-out: Ki (nM) mCB1R.

Molecules are shown by their SMILES. “Also recorded” adds a separate entry of the source. Where two headings read alike, the source gives them in different places.

T1 sequence (P34972 whole entry): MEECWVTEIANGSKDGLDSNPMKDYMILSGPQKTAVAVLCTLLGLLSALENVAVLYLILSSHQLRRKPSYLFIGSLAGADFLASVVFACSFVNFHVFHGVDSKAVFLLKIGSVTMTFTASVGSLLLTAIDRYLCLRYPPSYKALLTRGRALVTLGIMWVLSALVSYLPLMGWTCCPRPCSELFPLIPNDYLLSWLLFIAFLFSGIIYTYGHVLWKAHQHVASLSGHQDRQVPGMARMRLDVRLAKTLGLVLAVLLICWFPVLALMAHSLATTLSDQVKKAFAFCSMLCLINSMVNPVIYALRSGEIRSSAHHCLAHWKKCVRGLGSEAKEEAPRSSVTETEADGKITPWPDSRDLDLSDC
Sequence of mCB1R (P47746 whole entry): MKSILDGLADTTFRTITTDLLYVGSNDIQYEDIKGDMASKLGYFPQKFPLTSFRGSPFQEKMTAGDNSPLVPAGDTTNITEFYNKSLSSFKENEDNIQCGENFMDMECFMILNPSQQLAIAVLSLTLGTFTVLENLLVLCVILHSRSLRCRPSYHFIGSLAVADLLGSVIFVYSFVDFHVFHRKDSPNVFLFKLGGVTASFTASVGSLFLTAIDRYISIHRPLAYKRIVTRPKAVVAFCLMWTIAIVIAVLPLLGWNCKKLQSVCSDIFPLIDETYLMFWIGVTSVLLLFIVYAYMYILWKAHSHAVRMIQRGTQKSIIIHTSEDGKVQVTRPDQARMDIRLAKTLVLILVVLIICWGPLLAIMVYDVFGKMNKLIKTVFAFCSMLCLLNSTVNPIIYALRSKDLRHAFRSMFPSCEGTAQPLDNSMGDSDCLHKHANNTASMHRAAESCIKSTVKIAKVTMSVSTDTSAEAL

With `CCCCCc1cc(OC)c(C2(O)C3(C)CCC(C3)C2(C)C)c(OC)c1` (single isomer, unassigned) [Compound 1a, 2-(2,6′-dimethoxy-4′-pentylphenyl)-1,3,3-trimethylbicyclo[2.2.1]heptan-2-ol], in assay [1], the “functional activity at hCB2R (agonist / inverse agonist)” value is on record as “inverse agonist”, the EC50 was 1580 nM and the “E(max) %” value came to 24.08%. Also, the IC50 in assay [1] (read-out: IC50, reduction of [35S]GTPγS binding in hCB2R membrane) was found to be 1580 nM. The compound also registered a Ki in assay [2] (displacement of [3H]CP-55,940) of 47.7 nM. Further, the Ki in assay [3] (setting [4]) was above 10000 nM. Besides, the “inhibition of [3H]CP-55,940 binding to mCB1R” value in assay [3] (in words) is recorded as “no measurable inhibition”.

Turning to `CCCCCCCCc1ccc(OC)c(C2(O)C3(C)CCC(C3)C2(C)C)c1` (single isomer, unassigned) [Compound 3g, 2-(2′-methoxy-5′-octylphenyl)-1,3,3-trimethylbicyclo[2.2.1]heptan-2-ol], in assay [3] (read-out: Ki (nM) mCB1R), the Ki was above 10000 nM.

As for `COc1cc(C)cc(OC)c1C1(O)C2(C)CCC(C2)C1(C)C` (single isomer, unassigned) [Compound 1f, 2-(2,6′-dimethoxy-4′-methylphenyl)-1,3,3-trimethylbicyclo[2.2.1]-heptan-2-ol], the Ki was 233 nM in assay [2] and above 10000 nM in assay [3] (setting [5]).

As for `CCCCCCC(C)(C)c1cc(OC)c([C@@H]2C=C(CO)[C@@H]3C[C@H]2C3(C)C)c(OC)c1` [HU-308, reference compound], in assay [1], the “functional activity at hCB2R (agonist / inverse agonist)” value is recorded as “agonist” and the “E(max) %” value was determined as 100%. The compound further had a Ki in assay [3] above 10000 nM.

As for `CCCCCCC(C)(C)c1cc(OC)c(C2(O)C3(C)CCC(C3)C2(C)C)c(OC)c1F` (single isomer, unassigned) [Compound 4c, 2-(3′-fluoro-2,6′-dimethoxy-4′-(2″-methyloctan-2″-yl)phenyl)-1,3,3-trimethyl-bicyclo[2.2.1]heptan-2-ol], the Ki in assay [2] (displacement of [3H]CP-55,940) was 438 nM; in assay [3] (setting [5]), above 10000 nM.

For `CCCCCCC(C)(C)c1cc(OC)c(C2(O)C3(C)CCC(C3)C2(C)C)c(OC)c1F` (single isomer, unassigned) [Compound 4d, 2-(3′-fluoro-2,6′-dimethoxy-4′-(2″-methyloctan-2″-yl)phenyl)-1,3,3-trimethyl-bicyclo[2.2.1]heptan-2-ol], in assay [1], the “functional activity at hCB2R (agonist / inverse agonist)” value is reported as “agonist”, the EC50 was determined as 104 nM and the “E(max) %” value came to 118.7%. In addition, the Ki in assay [2] (displacement of [3H]CP-55,940) stood at 56.6 nM. Further, the Ki in assay [3] (setting [5]) is above 10000 nM.

Regarding `CCCCCc1cc(OC)c(C2(O)C3(C)CCC(C3)C2(C)C)c(OC)c1F` (single isomer, unassigned) [Compound 4b, 2-(3′-fluoro-2′,6′-dimethoxy-4′-pentylphenyl)-1,3,3-trimethylbicyclo[2.2.1]hept-an-2-ol], in assay [1], the “functional activity at hCB2R (agonist / inverse agonist)” value is “agonist” and the EC50 worked out at 305 nM. For the same compound, the Ki in assay [3] (setting [4]) is above 10000 nM.

With `CCCc1ccc(OC)c(C2(O)C3(C)CCC(C3)C2(C)C)c1` (single isomer, unassigned) [Compound 3a, 2-(2′-methoxy-5′-propylphenyl)-1,3,3-trimethylbicyclo[2.2.1]heptan-2-ol], the Ki in assay [3] (read-out: Ki (nM) mCB1R) is above 10000 nM.

`CCCCCc1ccc(OC)c(C2(O)C3(C)CCC(C3)C2(C)C)c1` (single isomer, unassigned) [Compound 3d, 2-(2′-methoxy-5′-pentylphenyl)-1,3,3-trimethylbicyclo[2.2.1]heptan-2-ol]: the Ki in assay [3] (setting [5]) is above 10000 nM.

Regarding `CCCCCc1ccc(OC)c(C2(O)C3(C)CCC(C3)C2(C)C)c1` (single isomer, unassigned) [Compound 3c, 2-(2′-methoxy-5′-pentylphenyl)-1,3,3-trimethylbicyclo[2.2.1]heptan-2-ol], the Ki in assay [3] (read-out: Ki (nM) mCB1R) is above 10000 nM.

Take `CCC(C)(C)c1ccc(OC)c(C2(O)C3(C)CCC(C3)C2(C)C)c1` (single isomer, unassigned) [Compound 3e, 2-(2′-methoxy-5′-(tert-pentyl)phenyl)-1,3,3-trimethylbicyclo[2.2.1]heptan-2-ol]: the Ki in assay [3] (read-out: Ki (nM) mCB1R) is above 10000 nM.

`CCCc1ccc(OC)c(C2(O)C3(C)CCC(C3)C2(C)C)c1` (single isomer, unassigned) [Compound 3b, 2-(2′-methoxy-5′-propylphenyl)-1,3,3-trimethylbicyclo[2.2.1]heptan-2-ol]: in assay [3] (setting [5]), the Ki was above 10000 nM.

Turning to `CCCCCc1cc(OC)c(C2(O)C3(C)CCC(C3)C2(C)C)c(OC)c1F` (single isomer, unassigned) [Compound 4a, 2-(3′-fluoro-2′,6′-dimethoxy-4′-pentylphenyl)-1,3,3-trimethylbicyclo[2.2.1]hept-an-2-ol], the Ki in assay [3] (setting [4]) is above 10000 nM.

Take `CCCCCCc1ccc(OC)c(C2(O)C3(C)CCC(C3)C2(C)C)c1OC` (single isomer, unassigned) [Compound 2a, 2-(3′-hexyl-2,6′-dimethoxyphenyl)-1,3,3-trimethylbicyclo[2.2.1]heptan-2-ol]: the Ki was 224 nM in assay [2] (displacement of [3H]CP-55,940) and above 10000 nM in assay [3] (setting [5]).

In the case of `COc1cc(C)cc(OC)c1C1(O)C2(C)CCC(C2)C1(C)C` (single isomer, unassigned) [Compound 1e, 2-(2,6′-dimethoxy-4′-methylphenyl)-1,3,3-trimethylbicyclo[2.2.1]-heptan-2-ol], the Ki in assay [3] (read-out: Ki (nM) mCB1R) was above 10000 nM.

On to `CCC(C)(C)c1ccc(OC)c(C2(O)C3(C)CCC(C3)C2(C)C)c1` (single isomer, unassigned) [Compound 3f, 2-(2′-methoxy-5′-(tert-pentyl)phenyl)-1,3,3-trimethylbicyclo[2.2.1]heptan-2-ol], for which the Ki in assay [3] (setting [5]) was above 10000 nM.

With `CCCCCCC(C)(C)c1cc(OC)c([C@@]2(O)C3(C)CCC(C3)C2(C)C)c(OC)c1` (stereo partly drawn) [Compound 1c, 2-(2,6′-dimethoxy-4′-(2″-methyloctan-2″-yl)phenyl)-1,3,3-trimethyl-bicyclo[2.2.1]heptan-2-ol], in assay [1], the “functional activity at hCB2R (agonist / inverse agonist)” value is reported as “agonist”, the EC50 came out at 121 nM and the “E(max) %” value stood at 87.15%. In assay [2] (displacement of [3H]CP-55,940), this compound displayed a Ki of 56.8 nM. In assay [3] (setting [5]), the Ki is above 10000 nM.

With `CCCCCCCCc1ccc(OC)c(C2(O)C3(C)CCC(C3)C2(C)C)c1` (single isomer, unassigned) [Compound 3h, 2-(2′-methoxy-5′-octylphenyl)-1,3,3-trimethylbicyclo[2.2.1]heptan-2-ol], in assay [3] (setting [5]), the Ki was above 10000 nM.

As for `CCCCCCc1ccc(OC)c(C2(O)C3(C)CCC(C3)C2(C)C)c1OC` (single isomer, unassigned) [Compound 2b, 2-(3′-hexyl-2,6′-dimethoxyphenyl)-1,3,3-trimethylbicyclo[2.2.1]heptan-2-ol], the “functional activity at hCB2R (agonist / inverse agonist)” value in assay [1] is “weakly stimulated; also recorded: agonist”. The “E(max) %” value in assay [1] amounted to 46.2%. For the same compound, the Ki in assay [2] (displacement of [3H]CP-55,940) is 73.4 nM; in assay [3] (setting [4]) it was above 10000 nM.

For the compound `CCCCCCC(C)(C)c1cc(O)c(C2(O)C3(C)CCC(C3)C2(C)C)c(OC)c1` (stereo not drawn) [Compound 5c, 2-(2′-hydroxy-6′-methoxy-4′-(2″-methyloctan-2″-yl)phenyl)-1,3,3-trimethyl-bicyclo[2.2.1]heptan-2-ol], the figures for the Ki in assay [2] (displacement of [3H]CP-55,940) and in assay [3] (setting [5]) were 107 nM and above 10000 nM, respectively.
